Test results reported in patent publication US20240156717A1, “COMPOSITION FOR ENHANCING SKIN WHITENING EFFECT ACCORDING TO AUTOPHAGY ACTIVITY WITH NYPA FRUTICANS EXTRACT AS AN ACTIVE INGREDIENT” (KYUNGPOOK NATIONAL UNIVERSITY INDUSTRY - ACADEMIC …, priority 2022, published 2024).

Tests used:
Type in all cases: cell-based
[1] = test system: Mouse melanocytes (Melan-a); test: Melanin content analysis in IBMX-treated melanocytes; conditions: 72 hours, FIG. 2
Description: (§1) Mouse melanocytes (Melan-a) were inoculated into a 24-well plate at 1×10^5 cells/mL and cultured overnight. Thereafter, the medium was replaced with a new medium containing 100 μM IBMX (melanogenesis promoter) and 10 μg/mL and 100 μg/mL of the Nypa fruticans extract of the present disclosure, and reacted for 72 hours, and the existing medium was washed. Thereafter, the cells were washed twice with PBS and dissolved in 1 N NaOH.
The melanin content was analyzed at 405 nm with a spectrophotometer, and arbutin was used as a positive control group.

[2] = test system: Mouse melanocytes (Melan-a); test: Melanin content with rapamycin (autophagy inducer) or bafilomycin (autophagy inhibitor); conditions: bafilomycin (autophagy inhibitor) treatment, FIG. 8
Description: as §1, with “hours.” for “hours, and the existing medium was washed.”, “treated” for “washed twice”, “rapamycin (autophagy inducer) or bafilomycin (autophagy inhibitor),” for “PBS”, “the melanin content was evaluated.” for “dissolved in 1 N NaOH.”

[3] = test system: melanogenesis-related proteins (TYR, TYRP-2, MITF) in mouse melanocytes (Melan-a); test: Melanogenesis inhibitory effect (Western blot), melanogenesis-related protein expression; conditions: IBMX treatment alone, FIG. 4
Description: as §1
Mouse melanocytes (Melan-a) were lysed with a RIPA buffer (ELPIS Biotech. Inc., Korea) containing protease inhibitor cocktail I (P8340; Sigma-Aldrich Korea) and phosphatase inhibitor cocktail II (P5726; Sigma-Aldrich Korea) and the extracted proteins were quantified using a Bradford protein method. Each protein was separated by 10% SDS-PAGE, and then transferred to a nitrocellulose (NC) membrane (0.45 μm; 1620115; Bio-Rad, Munich, Germany) and blocked with 5% skim milk or BSA in TBST for 1 hour. The membrane was cultured overnight with primary antibodies at 4° C. The membrane was washed four times at 15-minute intervals, and then reacted with anti-mouse or rabbit IgG-HRP as a secondary antibody. The proteins were detected using the ECL Solution System (ChemiDoc™ XRS+; Bio-Rad), and protein bands were quantified using Image Lab™ software (Bio-Rad Laboratories, CA, USA).

[4] = test system: melanogenesis-related genes (TYR, TYRP-1, TYRP-2, MITF, MC1R) in mouse melanocytes (Melan-a); test: Melanogenesis inhibitory effect (RT-PCR), melanogenesis-related mRNA expression; conditions: IBMX treatment alone, FIG. 3
Description: as §1
In melanogenesis, tyrosinase (TYR), tyrosinase-related protein-1 (TYRP-1) and tyrosinase-related protein-2 (TYRP-2) were key factors. […] In the experiment, phosphorylated CREB was evaluated as a transcription factor and melanogenesis-related genes such as tyrosinase, TYRP-1, TYRP-2, MITF, and MC1R in mouse melanocytes (Melan-a) to confirm a melanogenesis inhibitory effect.
Total RNA (2 μg) was extracted from the mouse melanocytes (Melan-a) using TRIzol (Invitrogen Co., Carlsbad, CA, USA). […] Quantification of bands was calculated using Image Lab™ software version 5.2.1 (Bio-Rad Laboratories, CA, USA).

OC[C@H]1O[C@@H](Oc2ccc(O)cc2)[C@H](O)[C@@H](O)[C@@H]1O [arbutin]
melanin content reduction effect ([1]; IBMX-treated Melan-a, extract 100 μg/mL, arbutin positive control): melanin content reduction effect

CO/C1=C\C(C)=C\[C@@H](C)[C@@H](O)[C@@H](C)C/C(C)=C/C=C/[C@H](OC)[C@@H]([C@@H](C)[C@@H](O)[C@H](C)[C@@]2(O)C[C@@H](O)[C@H](C)[C@@H](C(C)C)O2)OC1=O [bafilomycin]
effect on melanin content [2]: did not affect

CC(C)Cn1c(=O)n(C)c(=O)c2[nH]cnc21 [IBMX]
melanogenesis-related protein levels [3]: increased
melanogenesis-related mRNA expression [4]: increased
increase of melanin content compared to IBMX-untreated control group ([1]; 100 μM IBMX, absorbance 405 nm): about 1.5 times
